{"source": "patent US20070020193A1", "about": "“Dronabinol compositions and methods for using same” (priority 2005, published 2007)", "type_in_all_cases": "in vivo, human", "key": {"[1]": {"system": "healthy subjects", "assay": "Example 1: subjective drug ratings and ARCI", "description": "(§1) The subject responded to each of three questions on a scale of 0 to 100 with 0 meaning no effect/not at all and 100 meaning maximum/very much:\nHow much of a drug effect or high do you feel?\nHow much do you like the drug?\nHow much do you dislike the drug?\n(§2) The ARCI is a true/false questionnaire developed to specifically measure the subjective effects of drugs which have diverse pharmacological actions. The […] (PCAG), morphine-benzedrine, and lysergic acid diethylamide subgroup scales were used to assess sedation, euphoria, and dysphoria. Questions from the marijuana subscale were also included.\nSubjective drug ratings and cognitive measurement scores were presented as absolute values only with separate tables summarizing gender difference and age differences."}, "[2]": {"system": "healthy subjects", "assay": "Example 1: heart rate and blood pressure", "description": "Heart rate, conjunctiva congestion, subjective ratings, and a battery of computerized cognitive tests were used to evaluate pharmacodynamics. FIG. 11a-b are plots of mean baseline adjusted heart rate for Groups I-III. FIG. 12a-c show plots of placebo corrected diastolic blood pressure. […] FIG. 14a-b present comparisons of Active versus Placebo alertness and a plot of change in self-rated alertness. FIG. 15a-b show comparisons of Active v. Placebo for calmness and a plot of change in self-rated calmness.\n(§3) For Examples 1 and 2: Heart rate was obtained from the blood pressure recordings or using telemetry.\n(§4) Absolute values of heart rate and conjunctive congestion scores were used to calculate changes from baseline.\nFor Example 1: All pharmacodynamic variables were evaluated using descriptive statistics for all study evaluations."}, "[3]": {"system": "healthy subjects", "assay": "Example 2: subjective drug rating and ARCI-49", "description": "The data for Group I and Group II were pooled and submitted to a mixed effects general linear model analysis. Two sets of analyses were done. The first was for the pre-drug conditions. The fixed effect of day and the fixed effect of condition were non-significant for all of the five scale scores, indicating similarity of pre-drug baseline score. A second analysis compared condition, the first dosing day, the last dosing day, the four visits including pre-drug, and the subjects in the analysis of variance.\nas §1, §2"}, "[4]": {"system": "healthy subjects", "assay": "Example 2: pulmonary function tests", "experimental": "Adverse events were recorded based on original descriptions from subject responses to queries. Complete medical histories and physical examinations were conducted. Vital signs were monitored, ECGs were recorded along with pulmonary function tests and laboratory examinations.\nListings of values for each subject were presented with abnormal or out of range values for vital signs, laboratory assays, ECGs, pulmonary function tests, and physical examinations. Descriptive statistics (n, mean, standard deviation (SD), minimum, median, maximum) for all clinical laboratory safety parameters, ECGs, pulmonary function tests, and vital signs were provided. ECGs and physical examinations were to be summarized in shift tables to show changes from baseline between normal and abnormal findings."}, "[5]": {"system": "healthy subjects", "assay": "Example 2: heart rate (telemetry / vital signs)", "settings": "for placebo-corrected mean heart rate: 1.2 mg; for Mean increase of heart rate above baseline: last day of dosing", "description": "as §3, §4\nChanges from baseline in conjunctiva congestion and heart rate were compared for all time-points measured, and summarized using descriptive statistics. Subjective ratings were individually tabulated and sorted by treatment group, subject number, and time, and summarized using descriptive statistics. Separate tables were provided to summarize differences between males and females if applicable. Pharmacodynamic assessments were compared with delta-9 THC and 11-OH-THC blood concentrations and summarized using descriptive statistics."}, "[6]": {"settings": "after single dosing, both dose levels"}}}
{"smiles": "CCCCCc1cc(O)c2c(c1)OC(C)(C)[C@@H]1CCC(C)=C[C@@H]21", "note": "[delta-9-THC, delta-9-tetrahydrocannabinol]", "values": [{"measurement": "dose with maximum 'disliking'", "setting": "[1]; Group I", "result": 2.4, "unit": "mg"}, {"measurement": "dose with maximum psychoactivity ('feel the drug' scores) and highest mean 'liking' scores", "setting": "[1]; Group I", "result": 0.3, "unit": "mg"}, {"measurement": "dose with maximum 'disliking' scores and maximum 'feel the drug' scores", "setting": "[1]; Group II", "result": 7.2, "unit": "mg"}, {"measurement": "dose with maximum 'liking' scores", "setting": "[1]; Group II", "result": 3.6, "unit": "mg"}, {"measurement": "subjective drug ratings, three scales", "setting": "[1]; Group III, 3.6 mg", "result": "difference between placebo and 3.6 mg"}, {"measurement": "ARCI MBG, LSD and Amphetamine Scales", "setting": "[1]; in vivo", "result": "No significant results"}, {"measurement": "effect on heart rate", "setting": "[2]; 0.3 mg dose, Groups I-II", "result": "did not differ markedly from that observed with placebo"}, {"measurement": "duration of heart rate increase", "setting": "[2]; 1.2 mg", "result": 5, "unit": "min"}, {"measurement": "increase in heart rate relative to placebo", "setting": "[2]; 1.2 mg, 5 minutes after dosing", "result": "approximately 12 bpm"}, {"measurement": "duration of heart rate increase", "setting": "[2]; 2.4 mg", "result": "about 15 minutes"}, {"measurement": "largest effect on heart rate, increase compared to placebo", "setting": "[2]; 7.2 mg", "result": "about 46 bpm"}, {"measurement": "duration of heart rate increase", "setting": "[2]; 9.6 mg", "result": "about 2.0 hours"}, {"measurement": "time of return of heart rate to normal after dosing", "setting": "[2]; Group III (elderly, 3.6 mg)", "result": 5, "unit": "min"}, {"measurement": "heart rate increase", "setting": "[2]; Group III (elderly, 3.6 mg), at 2 minutes", "result": 10, "unit": "bpm"}, {"measurement": "placebo corrected diastolic and systolic blood pressure", "setting": "[2]; across the dose levels investigated", "result": "no clear dose-relationship"}, {"measurement": "duration of effect on heart rate", "setting": "[2]; after single dosing", "result": "approximately 2 hours"}, {"measurement": "time of maximum effect on heart rate", "setting": "[2]; after single dosing", "result": "2 to 5", "unit": "min"}, {"measurement": "placebo corrected heart rate", "setting": "[2]; between 0.17 and 5 hours post dose", "result": "dose related increase"}, {"measurement": "'feel the drug' and 'liking' scores", "setting": "[3]; 1.2 mg, Day 1", "result": "slightly larger than those who received placebo"}, {"measurement": "'disliking' scores", "setting": "[3]; 1.2 mg, Day 12", "result": "approximately the same or slightly higher"}, {"measurement": "'feel the drug' and 'liking' scores", "setting": "[3]; 1.2 mg, Day 12", "result": "diminished"}, {"measurement": "ARCI Morphine Benzedrine Group (MBG) scale", "setting": "[3]; 3.6 mg, 1 hour post-dose", "result": "some MBG effect"}, {"measurement": "'feel the drug', 'liking' and 'disliking' scores versus placebo", "setting": "[3]; 3.6 mg, Day 1", "result": "significantly larger"}, {"measurement": "subjective drug rating scores", "setting": "[3]; 3.6 mg, Day 19", "result": "still much larger than the placebo scores"}, {"measurement": "ARCI Amphetamine Scale (AS)", "setting": "[3]; Groups I and II pooled", "result": "no significant effects for condition"}, {"measurement": "ARCI Benzedrine Group scale, interaction terms", "setting": "[3]; Groups I and II pooled", "result": "significant for the visit and the condition by visit interaction terms"}, {"measurement": "ARCI LSD scale", "setting": "[3]; Groups I and II pooled", "result": "no significance for condition, day, visit, or any of the interaction terms"}, {"measurement": "ARCI PCAG scale, visit and condition times visit interaction", "setting": "[3]; Groups I and II pooled, p less than 0.001", "result": "highly significant"}, {"measurement": "FEV1, lowest result during the study", "setting": "[4]; one subject with below-normal pre-dose FEV1, Day 11, after six days of dosing with 1.2 mg", "result": 63, "unit": "%"}, {"measurement": "FEV1 at the follow-up visit", "setting": "[4]; same single subject, 1.2 mg", "result": "58 % of predicted"}, {"measurement": "placebo-corrected mean heart rate", "setting": "[5]; Day 1", "result": "limited and short-lasting increase"}, {"measurement": "placebo-corrected mean heart rate", "setting": "[5]; Day 12", "result": "no increase"}, {"measurement": "duration of placebo-corrected heart rate increase post-dose", "setting": "[5]; 3.6 mg, Day 1", "result": "at least 4 hours"}, {"measurement": "placebo-corrected mean heart rate, maximum increase", "setting": "[5]; 3.6 mg, after 19 days of dosing, by 10 minutes post-dose", "result": "approximately 10 bpm"}, {"measurement": "Mean increase of heart rate above baseline", "setting": "[5]; Group I (1.2 mg), at 0.5 hours after dosing", "result": "≤ 12", "unit": "bpm"}, {"measurement": "Mean increase of heart rate above baseline", "setting": "[5]; Group II (3.6 mg), at 5 minutes after dosing", "result": "≤ 18", "unit": "bpm"}, {"measurement": "heart rate (summary)", "setting": "[5]; after single dose inhaled administration", "result": "increased in a dose-dependent fashion"}, {"measurement": "duration of effect on heart rate", "setting": "[5]; [6]", "result": "2 to 4", "unit": "h"}, {"measurement": "time of maximum effect on heart rate", "setting": "[5]; [6]", "result": "2 to 5", "unit": "min"}]}
